Assay results as given in US11192888B2, “Antibacterial compounds” (priority 2017, dated 2021).
In brackets after ≈: the same amount, converted by molar mass. Several values for one entry are separate records, joined by “and”; a condition that tells them apart may be missing. Identical values can stand only once. Like-named read-outs stand apart in the source and are kept apart here. *1 amine or outer side, *2 acyl side, *3 side chain or, on linkers, in order; H or OH if unused. Where a SMILES comes first, the peptide text is derived from it. [ ]: non-standard residue; d: D form. dAla(ψthiazole) = C[C@@H](N[*:1])c1nc(C(=O)[*:2])cs1; Trp(4-Br) = N[C@@H](Cc1c[nH]c2cccc(Br)c12)C(=O)O; Dhb = C/C=C(\N)C(=O)O; Sar = CNCC(=O)O

What was measured:
[1] = tested on: Corynebacterium urealyticum NCTC 12011
[2] = tested on: Clostridium perfringens NCTC 8237
[3] = tested on: Lactobacillus rhamnosus ATCC 53103
[4] = tested on: C. difficile BI1 (BI/NAP1, ribotype 027); assay: Hamster model of C. difficile-associated disease; type: in vivo, Golden Syrian hamsters
[5] = tested on: Clostridium innocuum DSM 1286
[6] = tested on: Bifidobacterium breve ATCC 15700
[7] = tested on: Enterococcus faecium NCTC 12204
Clostridium scindens = assay: Growth of Clostridium scindens (separate study); type: cell-based; settings: at 80.0 μg/mL
Excerpt: It is known that the presence of Clostridium scindens in the gut can help to keep Clostridium difficile at bay. […] This would not be the case if a broad-spectrum antibiotic, such as vancomycin or metronidazole, was to be used. The lack of activity against Clostridium scindens would, therefore, further help the gut to recover from Clostridium difficile infection.

[8] = tested on: Staphylococcus aureus ATCC 29213
[9] = tested on: Escherichia coli ATCC 25922
[10] = tested on: Clostridium difficile strains (21 clinical, 7 reference)
[11] = tested on: Corynebacterium striatium NCTC 764
[12] = tested on: 23 representatives of normal gut flora; assay: CLSI MIC, whole panel of representative gut bacteria; type: cell-based; settings: at 64 μg/mL
[13] = tested on: Clostridium sordellii ATCC 9714; assay: CLSI MIC, representative gut bacteria; type: cell-based
Method: (§1) Comparative in vitro bacterial susceptibility to compounds 3, 9 and 10, vancomycin and metronidazole was determined using methods according to the Clinical and Laboratory Standard Institute (CLSI) approved guidelines (M7-A10, M11-A7 or M45-A2) for anaerobic and aerobic organisms.

[14] = tested on: Clostridium difficile ATCC 43255; assay: CLSI MIC, representative gut bacteria; type: cell-based
Method: as §1

[15] = tested on: Citrobacter koseri Clinical
[16] = tested on: Pseudomonas aeruginosa ATCC 27853
[17] = tested on: Pseudomonas aeruginosa NCTC 13437
[18] = tested on: C. difficile ATCC 43255 (aka VPI 10463; ribotype 087); assay: Mouse model of C. difficile-associated disease; type: in vivo, C57BL/6 mice
[19] = tested on: Corynebacterium jeikeium NCTC 11914
[20] = tested on: Enterobacter cloacae NCTC 13406
[21] = tested on: Propionibacterium acnes ATCC 6919
[22] = tested on: Bifidobacterium bifidum ATCC 11863
[23] = tested on: Proteus mirabilis DSM 30116
[24] = tested on: Clostridium ramosum DSM 1402
[25] = tested on: Enterococcus faecalis ATCC 29212
[26] = tested on: Bacteroides fragilis ATCC 25285; settings: Bacteroides fragilis, ATCC25285

**Q.** What does the source list for C/C=C1\NC(=O)[C@@H](C)NC(=O)CNC(=O)[C@H](Cc2c[nH]c3cccc(Br)c23)NC(=O)[C@H](Cc2c[nH]c3ccccc23)NC(=O)c2csc(n2)[C@@H](C)NC(=O)CN(C)C1=O [Compound 10, Cyclo[D-Ala-Thz-Trp-Trp(4-Br)-Gly-D-Ala-Dhb-Sar]] (cyclo([Dhb][Sar][dAla(ψthiazole)]W[Trp(4-Br)]G[dA]))?
**A.** MIC [1]: >64 mg/L; MIC [2]: 64 mg/L (≈ 72.1 µM); MIC [3]: >64 mg/L; hamsters that succumbed to the disease within 36 hours post-infection ([4]; 0.2 mg/kg): 100%; Mean survival ([4]; 0.2 mg/kg oral twice daily for 5 days): 35.75 h; animals reaching the end of the study at day-21 post-infection ([4]; 1.0 mg/kg and 2.5 mg/kg twice daily): 10%; Mean survival ([4]; 1.0 mg/kg oral twice daily for 5 days): 155 h and 154.63 h; average survival ([4]; 1.0 mg/kg twice daily): 6.5 days; increase in survival time compared to vehicle control ([4]; 1.0 mg/kg twice daily): 4.7 fold; Mean survival ([4]; 2.5 mg/kg oral twice daily for 5 days): 206 h and 205.92 h; average survival ([4]; 2.5 mg/kg twice daily): 8.5 days; increase in survival time compared to vehicle control ([4]; 2.5 mg/kg twice daily): 6.3 fold; survival at day 6 post-infection ([4]; 2.5 mg/kg twice daily): 100%; survival time compared to the vehicle control ([4]; 0.2, 1.0 and 2.5 mg/kg, non-optimised doses): significant dose dependent increase in survival time; MIC [5]: >64 mg/L; MIC [6]: >64 mg/L; MIC [7]: >64 mg/L; growth of Clostridium scindens (Clostridium scindens): unaffected; MIC [8]: >64 mg/L; MIC [9]: >64 mg/L; activity against P. aeruginosa in comparison to the Dha containing compound 3 (P. aeruginosa PAO1; PAO1): three-fold increase in activity; IC50 (P. aeruginosa PAO1; PAO1, 13 h): 3.7 ± 1 µM; % Growth inhibition at 100 μM (P. aeruginosa PAO1; PAO1, 13 h, 100): 90.6 ± 1.3%; times more potent than Argyrin A (P. aeruginosa PAO1; against P. aeruginosa): 4 to 5; MIC40 ([10]; 28 C. difficile strains): 0.25 mg/L (≈ 0.282 µM); MIC50 ([10]; 28 C. difficile strains): 0.50 mg/L (≈ 0.563 µM); MIC90 ([10]; 28 C. difficile strains): 0.50 mg/L (≈ 0.563 µM); MIC ([10]; C. difficile strain 630 (ribotype 012)): 0.25 mg/L (≈ 0.282 µM); MIC ([10]; C. difficile strain ATCC 9689 (ribotype 001)): 0.5 mg/L (≈ 0.563 µM); MIC ([10]; C. difficile strain ATCC 13366): 1 mg/L (≈ 1.13 µM); MIC ([10]; C. difficile strain ATCC 43255): 0.25 mg/L (≈ 0.282 µM); MIC ([10]; C. difficile strain ATCC 700057 (ribotype 038)): 0.25 mg/L (≈ 0.282 µM); MIC ([10]; C. difficile strain ATCC BAA 1875 (ribotype 078)): 0.5 mg/L (≈ 0.563 µM); MIC ([10]; C. difficile strain BI1-FDX^R): 0.25 mg/L (≈ 0.282 µM); MIC ([10]; C. difficile strain Clin. 1): 0.25 mg/L (≈ 0.282 µM); MIC ([10]; C. difficile strain Clin. 2): 0.5 mg/L (≈ 0.563 µM); MIC ([10]; C. difficile strain Clin. 3): 0.25 mg/L (≈ 0.282 µM); MIC ([10]; C. difficile strain Clin. 5): 0.5 mg/L (≈ 0.563 µM); MIC ([10]; C. difficile strain Clin. 6): 0.5 mg/L (≈ 0.563 µM); MIC ([10]; C. difficile strain Clin. 7): 0.25 mg/L (≈ 0.282 µM); MIC ([10]; C. difficile strain Clin. 8): 0.5 mg/L (≈ 0.563 µM); MIC ([10]; C. difficile strain Clin. 9): 0.5 mg/L (≈ 0.563 µM); MIC ([10]; C. difficile strain Clin. 10): 0.25 mg/L (≈ 0.282 µM); MIC ([10]; C. difficile strain Clin. 11): 0.5 mg/L (≈ 0.563 µM); MIC ([10]; C. difficile strain Clin. 12): 0.25 mg/L (≈ 0.282 µM); MIC ([10]; C. difficile strain Clin. 13): 0.5 mg/L (≈ 0.563 µM); MIC ([10]; C. difficile strain Clin. 14): 0.5 mg/L (≈ 0.563 µM); MIC ([10]; C. difficile strain Clin. 15): 0.5 mg/L (≈ 0.563 µM); MIC ([10]; C. difficile strain Clin. 16): 0.25 mg/L (≈ 0.282 µM); MIC ([10]; C. difficile strain Clin. 18): 0.5 mg/L (≈ 0.563 µM); MIC ([10]; C. difficile strain Clin. 20): 0.25 mg/L (≈ 0.282 µM); MIC ([10]; C. difficile strain Clin. 21): 0.5 mg/L (≈ 0.563 µM); MIC ([10]; C. difficile strain Clin. 22): 0.5 mg/L (≈ 0.563 µM); MIC ([10]; C. difficile strain Clin. 23): 0.5 mg/L (≈ 0.563 µM); MIC ([10]; C. difficile strain Clin. 24): 0.25 mg/L (≈ 0.282 µM); share of the C. difficile strains tested that are susceptible ([10]; at 0.25 μg/mL): 43%; MIC against C. difficile ([10]; range over strains): 0.25 to 0.50 mg/L; MIC [11]: >64 mg/L; share of the 23 representatives of normal gut flora that are insensitive [12]: Approximately 90%; MIC [13]: 1.0 mg/L (≈ 1.13 µM); fold more potent against C. difficile ATCC 43255 compared to Bacteroides fragilis [14]: at least 256 fold; MIC ([14]; Clostridium difficile ATCC 43255): 0.25 mg/L (≈ 0.282 µM); IC50 (B. multivorans ATCC17616; ATCC17616, 25 h): 0.84 ± 0.1 µM; times more potent than Argyrin A (B. multivorans ATCC17616; against B. multivorans): 4 to 5; MIC [15]: >64 mg/L; MIC [16]: >64 mg/L; MIC [17]: >64 mg/L; survival to the end of the study at day-21 post-infection ([18]; 1 mg/kg): 80%; Mean survival ([18]; 1 mg/kg oral BD for 5 days): 504.00 h; survival to the end of the study at day-21 post-infection ([18]; 2.5 mg/kg): 70%; Mean survival ([18]; 2.5 mg/kg oral BD for 5 days): 504.00 h; reduction in C. difficile spore burden in the caecum vs vehicle controls ([18]; 5 mg/kg): 1.73 Log10 spore/mL; reduction in C. difficile spore burden in the colon vs vehicle controls ([18]; 5 mg/kg): 1.11 Log10 spore/mL; survival to the end of the study at day-21 post-infection ([18]; 5 mg/kg): 90%; Mean survival ([18]; 5 mg/kg oral BD for 5 days): 504.00 h; MIC [19]: >64 mg/L; MIC [20]: >64 mg/L; MIC [21]: >64 mg/L; MIC [22]: >64 mg/L; MIC [23]: >64 mg/L; MIC [24]: >64 mg/L; MIC [25]: >64 mg/L; MIC [26]: > 64 mg/L
